Measured values as given in PubChem BioAssay (NCI).
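In this assay, cells in 96-well plates receive the compound at five concentrations for 48 hours. Endpoints are linearly interpolated between the surrounding concentrations. TGI is the concentration that stops growth completely.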

How the values were obtained:
Assay in all cases: DTP human tumour cell line panel, 48 h
[1] = tested on: 786-0 renal
[2] = tested on: A498 renal
[3] = tested on: A549 NSCLC
[4] = tested on: ACHN renal
[5] = tested on: CAKI-1 renal
[6] = tested on: CCRF-CEM leukemia
[7] = tested on: COLO 205 colon
[8] = tested on: DMS 114 small cell lung
[9] = tested on: EKVX NSCLC
[10] = tested on: HCC-2998 colon
[11] = tested on: HCT-116 colon
[12] = tested on: HCT-15 colon
[13] = tested on: HL-60(TB) leukemia
[14] = tested on: HOP-18 NSCLC
[15] = tested on: HOP-62 NSCLC
[16] = tested on: HOP-92 NSCLC
[17] = tested on: HT29 colon
[18] = tested on: IGROV1 ovarian
[19] = tested on: K-562 leukemia
[20] = tested on: KM12 colon
[21] = tested on: KM20L2 colon
[22] = tested on: LOX IMVI melanoma
[23] = tested on: LXFL 529 NSCLC
[24] = tested on: M14 melanoma
[25] = tested on: M19-MEL melanoma
[26] = tested on: MALME-3M melanoma
[27] = tested on: MOLT-4 leukemia
[28] = tested on: NCI-H226 lung
[29] = tested on: NCI-H23 lung
[30] = tested on: NCI-H460 lung
[31] = tested on: NCI-H522 lung
[32] = tested on: OVCAR-3 ovarian
[33] = tested on: OVCAR-4 ovarian
[34] = tested on: OVCAR-5 ovarian
[35] = tested on: OVCAR-8 ovarian
[36] = tested on: RPMI-8226 leukemia
[37] = tested on: RXF 393 renal
[38] = tested on: SF-268 CNS
[39] = tested on: SF-295 CNS
[40] = tested on: SF-539 CNS
[41] = tested on: SK-MEL-2 melanoma
[42] = tested on: SK-MEL-28 melanoma
[43] = tested on: SK-MEL-5 melanoma
[44] = tested on: SK-OV-3 ovarian
[45] = tested on: SN12C renal
[46] = tested on: SNB-19 CNS
[47] = tested on: SNB-75 CNS
[48] = tested on: SNB-78 CNS
[49] = tested on: SR leukemia
[50] = tested on: SW-620 colon
[51] = tested on: TK-10 renal
[52] = tested on: U251 CNS
[53] = tested on: UACC-257 melanoma
[54] = tested on: UACC-62 melanoma
[55] = tested on: UO-31 renal
[56] = tested on: XF 498 CNS
[57] = tested on: BT-549 breast
[58] = tested on: DLD-1 colon
[59] = tested on: DMS 273 small cell lung
[60] = tested on: DU-145 prostate
[61] = tested on: HS 578T breast
[62] = tested on: MCF7 breast
[63] = tested on: MDA-MB-231 breast
[64] = tested on: MDA-MB-435
[65] = tested on: NCI/ADR-RES ovarian
[66] = tested on: PC-3 prostate
[67] = tested on: T-47D breast

Measured: TGI

Cc1cc(Cl)ccc1NC(=O)C1C(=O)N(c2ccc(Cl)cc2C)C(=O)/C1=N\N (configuration not stated)
67.3 µM: [10]
96.4 µM: [38]
93.8 µM: [28]
99.3 µM: [51]
90.9 µM: [41]
93.7 µM: [2]
not listed: [57] | [58] | [59] | [60] | [61] | [62] | [63] | [64] | [65] | [66] | [67]
> 100 µM: all other assays above

COc1cc(/C=C\c2ccc(SC)cc2)cc(OC)c1OC
> 46.1 µM: [16]
45.2 µM: [22]
0.59 µM: [17]
> 41 µM: [35]
15.1 µM: [49]
29.4 µM: [12]
> 18.5 µM: [34]
1.75 µM: [44]
0.0402 µM: [37]
56.1 µM: [38]
11.6 µM: [14]
25.2 µM: [36]
2.17 µM: [10]
> 26.3 µM: [11]
0.0364 µM: [40]
1.11 µM: [52]
28.9 µM: [27]
0.0448 µM: [21]
1.95 µM: [59]
0.0369 µM: [31]
> 54.1 µM: [2]
57.8 µM: [32]
> 49.3 µM: [30]
2.72 µM: [43]
45.3 µM: [55]
> 76.3 µM: [15]
0.463 µM: [13]
0.108 µM: [7]
< 0.0204 µM: [39]
> 46.8 µM: [19]
0.408 µM: [29]
> 17.1 µM: [18]
5.38 µM: [23]
> 47.1 µM: [6]
18.5 µM: [1]
19.8 µM: [56]
0.268 µM: [8]
0.841 µM: [41]
2.8 µM: [20]
not listed: [5] | [28] | [46] | [53]
> 100 µM: all other assays above

CCCCCCCCCCCCC(Br)C(=O)SCCNC(=O)CCNC(=O)[C@@H](O)C(C)(C)COP(=O)(O)OP(=O)(O)OCC1OC(n2cnc3c(N)ncnc32)C(O)C1OP(=O)(O)O (some centres not stated)
40.4 µM: [53]
not listed: [5] | [19] | [27] | [36] | [49] | [57] | [60] | [61] | [62] | [63] | [64] | [65] | [66] | [67]
> 56.5 µM: all other assays above
